Results from patent publication US12643883B2, “Solid state forms of a kinase inhibitor” (Deciphera Pharmaceuticals, LLC, priority 2023, dated 2026).
Values belong to the compound of their own block, whether it stands above or below them.

What was measured:
Format in all cases: physicochemical
[1] = Hydration of the crystalline anhydrous form in low water activity solvents; conditions: water activity 0.1, Ambient, XRPD
Protocol: The hydration of the crystalline anhydrous form was studied using aqueous solvent systems with low water activity of 0.1. Slurries of the crystalline anhydrous form in the respective solvent were agitated for 6 days at room temperature. Aliquots of isolated materials were analyzed after 24, 48, and 144 hours of agitation. Table 12 summarizes the experiment conditions and isolated crystalline forms, as determined by XRPD.

[2] = Static storage stability of crystalline dihydrate and anhydrous forms (XRPD, DSC, KF once weekly for four weeks)
Protocol: The stability of crystalline dihydrate and anhydrous forms of the compound represented by Formula (I) at varying relative humidity (RH) and temperature was investigated.
For example, the stability of crystalline dihydrate and anhydrous forms of the compound represented by Formula (I), as prepared according to Example 1 and Example 2, respectively, was studied under other conditions by placing aliquots of each form in static storage at conditions of 40° C./75% RH, 25° C./97% RH, 40° C./0% RH and 25° C./0% RH and analyzing the aliquots once weekly for four weeks using XRPD, DSC, and KF.

[3] = Hydration experiment, slurry of crystalline anhydrous form in deionized water; conditions: successive 4-hour heat-cool cycles between 40° C. and room temperature for 72 hours
Protocol: In a hydration experiment, a slurry of the crystalline anhydrous form of the compound represented by Formula (I) and deionized water was subjected to successive 4-hour heat-cool cycles between 40° C. and room temperature for 72 hours.

[4] = static storage 25° C./0% RH, Week 1
[5] = static storage 25° C./0% RH, Week 2
[6] = static storage 25° C./0% RH, Week 3
[7] = static storage 25° C./0% RH, Week 4
[8] = static storage 25° C./97% RH, Week 1
[9] = static storage 25° C./97% RH, Week 2
[10] = static storage 25° C./97% RH, Week 3
[11] = static storage 25° C./97% RH, Week 4
[12] = static storage 40° C./0% RH, Week 1
[13] = static storage 40° C./0% RH, Week 2
[14] = static storage 40° C./0% RH, Week 3
[15] = static storage 40° C./0% RH, Week 4
[16] = static storage 40° C./75% RH, Week 1
[17] = static storage 40° C./75% RH, Week 2
[18] = static storage 40° C./75% RH, Week 3
[19] = static storage 40° C./75% RH, Week 4
[20] = static storage 25° C./0% RH, Week 4, listed as crystalline dihydrate form (having average crystal sizes of about 1 mm), dihydrate
[21] = static storage 40° C./0% RH, Week 1, dihydrate
[22] = static storage 40° C./0% RH, Week 4, listed as crystalline dihydrate form (having average crystal sizes of about 1 mm), dihydrate

Observed Forms 24 h ([1]; slurry in Acetone/water (99:1)): Anhydrous | Observed Forms 144 h ([1]; slurry in Acetone/water (99:1)): Anhydrous | Observed Forms 24 h ([1]; slurry in MEK/water (99:1)): Anhydrous | Observed Forms 144 h ([1]; slurry in MEK/water (99:1)): Dihydrate | stability under all storage conditions ([2]; 40° C./75% RH, 25° C./97% RH, 40° C./0% RH and 25° C./0% RH, after 4 weeks): remained stable | KF (%) [2, 4]: 0.1% | XRPD [2, 4]: Anhydrous | KF (%) [2, 5]: 0.1% | XRPD [2, 5]: Anhydrous | KF (%) [2, 6]: 0.0% | XRPD [2, 6]: Anhydrous | KF (%) [2, 7]: 0.2% | XRPD [2, 7]: Anhydrous | KF (%) [2, 8]: 0.3% | XRPD [2, 8]: Anhydrous | KF (%) [2, 9]: 0.3% | XRPD [2, 9]: Anhydrous | KF (%) [2, 10]: 0.2% | XRPD [2, 10]: Anhydrous | KF (%) [2, 11]: 0.4% | XRPD [2, 11]: Anhydrous | KF (%) [2, 12]: 0.1% | XRPD [2, 12]: Anhydrous | KF (%) [2, 13]: 0.0% | XRPD [2, 13]: Anhydrous | KF (%) [2, 14]: 0.0% | XRPD [2, 14]: Anhydrous | KF (%) [2, 15]: 0.2% | XRPD [2, 15]: Anhydrous | KF (%) [2, 16]: 0.3% | XRPD [2, 16]: Anhydrous | KF (%) [2, 17]: 0.2% | XRPD [2, 17]: Anhydrous | KF (%) [2, 18]: 0.1% | XRPD [2, 18]: Anhydrous | KF (%) [2, 19]: 0.3% | XRPD [2, 19]: Anhydrous | isolated solid identified by XRPD [3]: crystalline dihydrate form
SMILES: Cc1nc(-c2cnc(NC(C)C)n(C)c2=O)ccc1Oc1ccnc(-c2cnn(C)c2)c1 [2-(isopropylamino)-3-methyl-5-(6-methyl-5-((2-(1-methyl-1H-pyrazol-4-yl)pyridin-4-yl)oxy)pyridin-2-yl)pyrimidin-4 (3H)-one]

XRPD ([2]; static storage 25° C./0% RH, Week 1, dihydrate): Dihydrate | KF (%) ([2]; static storage 25° C./0% RH, Week 1, dihydrate, dihydrate crystals about 10-50 µm): 7.5% | XRPD ([2]; static storage 25° C./0% RH, Week 2, dihydrate): Dihydrate | KF (%) ([2]; static storage 25° C./0% RH, Week 2, dihydrate, dihydrate crystals about 10-50 µm): 7.7% | XRPD ([2]; static storage 25° C./0% RH, Week 3, dihydrate): Dihydrate | KF (%) ([2]; static storage 25° C./0% RH, Week 3, dihydrate, dihydrate crystals about 10-50 µm): 8.1% | XRPD ([2]; static storage 25° C./0% RH, Week 4, dihydrate): Dihydrate | KF (%) ([2]; static storage 25° C./0% RH, Week 4, dihydrate, dihydrate crystals about 10-50 µm): 7.9% | KF (%) [2, 20]: 5.8% | XRPD ([2]; static storage 25° C./97% RH, Week 1, dihydrate): Dihydrate | KF (%) ([2]; static storage 25° C./97% RH, Week 1, dihydrate, dihydrate crystals about 10-50 µm): 7.6% | XRPD ([2]; static storage 25° C./97% RH, Week 2, dihydrate): Dihydrate | KF (%) ([2]; static storage 25° C./97% RH, Week 2, dihydrate, dihydrate crystals about 10-50 µm): 7.5% | XRPD ([2]; static storage 25° C./97% RH, Week 3, dihydrate): Dihydrate | KF (%) ([2]; static storage 25° C./97% RH, Week 3, dihydrate, dihydrate crystals about 10-50 µm): 7.9% | XRPD ([2]; static storage 25° C./97% RH, Week 4, dihydrate): Dihydrate | KF (%) ([2]; static storage 25° C./97% RH, Week 4, dihydrate, dihydrate crystals about 10-50 µm): 7.9% | XRPD ([2]; static storage 25° C./97% RH, Week 4, listed as crystalline dihydrate form (having average crystal sizes of about 1 mm), dihydrate): remained stable and unchanged | XRPD [2, 21]: Pattern 4 | KF (%) ([2]; static storage 40° C./0% RH, Week 1, dihydrate, dihydrate crystals about 10-50 µm): 7.5% | XRPD ([2]; static storage 40° C./0% RH, Week 1, listed as crystalline dihydrate form (having crystal sizes in the range of about 10-50 μm , dihydrate)): Pattern 4 | XRPD ([2]; static storage 40° C./0% RH, Week 2, dihydrate): Pattern 4 | KF (%) ([2]; static storage 40° C./0% RH, Week 2, dihydrate, dihydrate crystals about 10-50 µm): 7.4% | XRPD ([2]; static storage 40° C./0% RH, Week 2, listed as crystalline dihydrate form (having crystal sizes in the range of about 10-50 μm , dihydrate)): Pattern 4 | XRPD ([2]; static storage 40° C./0% RH, Week 3, dihydrate): Anhydrous | KF (%) ([2]; static storage 40° C./0% RH, Week 3, dihydrate, dihydrate crystals about 10-50 µm): 7.0% | XRPD ([2]; static storage 40° C./0% RH, Week 3, listed as crystalline dihydrate form (having crystal sizes in the range of about 10-50 μm , dihydrate)): Pattern 4 and peaks at 9.9° and 10.6° | KF (%) ([2]; static storage 40° C./0% RH, Week 4, dihydrate, dihydrate crystals about 10-50 µm): 3.4% | KF (%) [2, 22]: 0.2% | XRPD ([2]; static storage 40° C./0% RH, Week 4, listed as crystalline dihydrate form (having crystal sizes in the range of about 10-50 μm , dihydrate)): Pattern 4 and peaks at 9.9° and 10.6° | XRPD ([2]; static storage 40° C./75% RH, Week 1, dihydrate): Dihydrate | KF (%) ([2]; static storage 40° C./75% RH, Week 1, dihydrate, dihydrate crystals about 10-50 µm): 7.5% | XRPD ([2]; static storage 40° C./75% RH, Week 2, dihydrate): Dihydrate | KF (%) ([2]; static storage 40° C./75% RH, Week 2, dihydrate, dihydrate crystals about 10-50 µm): 7.9% | XRPD ([2]; static storage 40° C./75% RH, Week 3, dihydrate): Dihydrate | KF (%) ([2]; static storage 40° C./75% RH, Week 3, dihydrate, dihydrate crystals about 10-50 µm): 8.0% | XRPD ([2]; static storage 40° C./75% RH, Week 4, dihydrate): Dihydrate | KF (%) ([2]; static storage 40° C./75% RH, Week 4, dihydrate, dihydrate crystals about 10-50 µm): 7.9% | XRPD ([2]; static storage 40° C./75% RH, Week 4, listed as crystalline dihydrate form (having average crystal sizes of about 1 mm), dihydrate): remained stable and unchanged
SMILES: Cc1nc(-c2cnc(NC(C)C)n(C)c2=O)ccc1Oc1ccnc(-c2cnn(C)c2)c1 [Dihydrate form of the compound represented by Formula (I) (h] [2-(isopropylamino)-3-methyl-5-(6-methyl-5-((2-(1-methyl-1H-pyrazol-4-yl)pyridin-4-yl)oxy)pyridin-2-yl)pyrimidin-4 (3H)-one dihydrate]
XRPD [2, 20]: partially converted to the crystalline anhydrous form | XRPD [2, 22]: partially converted to the crystalline anhydrous form

SMILES: Cc1nc(-c2cnc(NC(C)C)n(C)c2=O)ccc1Oc1ccnc(-c2cnn(C)c2)c1 [ground crystalline dihydrate form, 2-(isopropylamino)-3-methyl-5-(6-methyl-5-((2-(1-methyl-1H-pyrazol-4-yl)pyridin-4-yl)oxy)pyridin-2-yl)pyrimidin-4 (3H)-one dihydrate]
XRPD [2, 21]: Pattern 4 and the crystalline anhydrous form
